We go through 4 compounds from patent publication US12415832B2, “B-catenin/B-cell Lymphoma 9 protein-protein interaction inhibiting peptidomimetics” (University of South Florida, priority 2019, dated 2025).

Like-named read-outs stand apart in the source and are kept apart here.

Assay [1] deals with T1, β-catenin (Homo sapiens, UniProt P35222).
T1 sequence (P35222 1-781): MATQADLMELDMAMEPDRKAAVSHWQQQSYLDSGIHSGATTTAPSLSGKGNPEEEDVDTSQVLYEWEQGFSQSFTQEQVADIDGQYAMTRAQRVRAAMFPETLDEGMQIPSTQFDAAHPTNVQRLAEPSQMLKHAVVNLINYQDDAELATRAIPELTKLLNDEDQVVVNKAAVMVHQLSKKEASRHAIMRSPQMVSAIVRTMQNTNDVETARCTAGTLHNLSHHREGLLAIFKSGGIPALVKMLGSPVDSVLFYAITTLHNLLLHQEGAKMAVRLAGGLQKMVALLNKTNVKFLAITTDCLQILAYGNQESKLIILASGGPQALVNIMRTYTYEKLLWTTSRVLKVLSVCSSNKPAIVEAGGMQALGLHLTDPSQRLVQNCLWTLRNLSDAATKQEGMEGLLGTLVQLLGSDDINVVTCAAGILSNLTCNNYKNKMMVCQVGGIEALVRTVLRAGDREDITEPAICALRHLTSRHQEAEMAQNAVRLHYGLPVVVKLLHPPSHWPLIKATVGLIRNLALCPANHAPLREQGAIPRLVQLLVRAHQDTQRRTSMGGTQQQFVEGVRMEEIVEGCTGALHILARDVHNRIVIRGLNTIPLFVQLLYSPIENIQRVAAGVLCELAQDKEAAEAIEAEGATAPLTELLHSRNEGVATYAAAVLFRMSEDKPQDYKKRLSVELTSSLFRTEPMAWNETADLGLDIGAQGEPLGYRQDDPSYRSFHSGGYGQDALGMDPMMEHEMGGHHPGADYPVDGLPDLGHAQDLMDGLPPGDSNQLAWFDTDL
Description: FP assay, binding of peptides with β-catenin (Kd). Particulars: for Kd: fluorescence polarization, 50 nM FITC labeled peptide, 1×PBS; for decrease in binding affinity relative to 2: Ala substitution.

Assay [2] deals with T2, β-catenin/BCL9 PPI (Homo sapiens, UniProt P35222).
T2 construct: 40 nM His6-tagged FL-β-catenin
T2 sequence (P35222 1-781): T1 sequence (P35222 1-781)
The experiment in a line: AlphaScreen competitive inhibition assay of β-catenin/BCL9 PPI. The format is binding. Particulars: AlphaScreen, mean ± SD; for IC50: 5 nM biotinylated BCL9, 40 nM His6-tagged FL-β-catenin; for Ki: Ki derived from IC50 by method of Nikolovska-Coleska et al. The procedure:
For the competitive inhibition assays of β-catenin/BCL9 PPI, the negative control (equivalent to 0% inhibition) refers to 5.0 nM biotinylated BCL9, 40 nM His6-tagged FL-β-catenin, and 10 μg/mL of donor and acceptor beads in a final volume of 25 μL of assay buffer, but no tested inhibitor present. The positive control (equivalent to 100% inhibition) refers to 5.0 nM biotinylated BCL9 and 10 μg/mL of donor and acceptor beads in a final volume of 25 μL of assay buffer. For the β-catenin/BCL9 assay, 5 nM biotinylated BCL9 and 40 nM His6-tagged FL-β-catenin were incubated in assay buffer at 4° C. for 30 min. Different concentrations of the tested inhibitor were added and incubated in 20 μL of assay buffer at 4° C. for another 1 h. All of the above assay plates were covered and gently mixed on an orbital shaker. The donor and acceptor beads were then added to the plates to a final concentration of 10 μg/mL in 25 μL of assay buffer. The mixture was incubated for 1 h at 4° C. before detection. The IC50 value was determined by nonlinear least-squares analysis of GraphPad Prism 5.0. The Ki values were derived from the IC50 values using a method reported by Nikolovska-Coleska et al. The assays were conducted under the conditions reported by Nikolovska-Coleska et al.'s equation for determining the Ki values. All of the experiments were performed in triplicate. The results were expressed as mean±standard deviation.

For assay [3], the system named is SW480 cell. The format is cell-based. Particulars: 72 h. The procedure: Colorectal cancer cell lines SW480 were seeded in 96-well plates at 5×10^3 cells/well, maintained overnight at 37° C., and incubated in the presence of inhibitors at various concentrations. Cell viability was monitored after 72 h using a freshly prepared mixture of one-part phenazine methosulfate (PMS, Sigma) solution (0.92 mg/mL) and 19 parts MTs agent (3-(4,5-dimethylthiazol-2-yl)-5-(3-carboxymethoxyphenyl)-2-(4-sulfophenyl)-2H-tetrazolium, inner salt, Promega) solution (2 mg/mL). Cells were incubated in 10 μL of this solution at 37° C. for 3 h, and A490 was measured. The effect of each compound is expressed as the concentration required to reduce A490 by 50% (IC50) relative to vehicle-treated cells. Experiments were performed in triplicate and repeated for three times.

The subject of assay [4] is A549 cell. The format is cell-based. As to conditions: 72 h.
In assay [5] the test system is Wnt/β-catenin signaling transactivation (TOPFlash). The experiment in a line: Wnt-responsive TOPFlash luciferase reporter assay in SW480 cells. As to conditions: for IC50: read-out: TOPFlash luciferase IC50 (estimated), 24 h.
Description: Wnt-specific TOPFlash/FOPFlash luciferase reporter assays were used to evaluate the effects of these compounds on β-catenin-dependent transcription. For the TOPFlash reporter construct, the firefly luciferase reporter gene was placed downstream of three wild-type Tcf binding sites. For the FOPFlash reporter construct, the firefly luciferase reporter gene was place downstream of three mutant Tcf binding sites. The high expression of firefly luciferase in TOPFlash assays was controlled by tandem Tcf binding sites. The renilla luciferase reporter construct (pCMV-RL) was used as the internal control to normalize luciferase reporter signals and eliminate systematic errors such as cell viability, transfection effect, etc.
SW480 cells were co-transfected with 60 ng of the TOPFlash or FOPFlash firefly luciferase reporter gene and 40 ng of renilla luciferase pCMV-RL normalization reporter. Cells were cultured in DMEM and 10% FBS at 37° C. for 24 h, and different concentrations of inhibitors or DMSO were added. After 24 h, the luciferase reporter activity was measured using the Dual-Glo system (E2940, Promega). Normalized luciferase activity in response to the treatment with inhibitors was compared with that obtained from the cells treated with DMSO. Experiments were performed in triplicate.
Assay [6] deals with β-catenin/BCL9 PPI. Description: Co-immunoprecipitation in HCT116 cells. Particulars: 24 h. The class given is cell-based. The procedure: β-Catenin signaling hyperactive HCT116 cancer cells at […] were treated with different concentrations of the inhibitor for 24 h. Cells were then lysed in buffer containing 50 mM Tris, pH 7.4, 150 mM NaCl, 1% Nonidet […], 2 mM EDTA, and protease inhibitors. The cell lysates were then preadsorbed to A/G plus agarose (sc-2003, Santa Cruz Biotechnology) at 4° C. for 1 h. Preadsorbed lysates were incubated with a specific primary antibody against […] (610153, BD Biosciences) overnight at 4° C. A/G plus agarose was then added to the lysate mixture and incubated for 3 h. The beads were washed four times with the lysis buffer at 4° C. The bound protein was eluted by boiling in the SDS sample buffer and loaded onto 8% SDS polyacrylamide gel for electrophoretic analysis. Separated proteins were transferred onto nitrocellulose membranes for immunoblot analysis. The antibodies against BCL9 (ab37305, Abcam), β-catenin (610153, BD Biosciences), and […] (sc-55529, Santa Cruz Biotechnology, Inc.) were incubated with the membranes, respectively. IRDye 680LT goat anti mouse IgG (827-11080, LiCOR) and IRDye 800CW goat anti rabbit IgG (926-32211, LiCOR) were used as the secondary antibodies. The images were detected by the Odyssey Infrared Imaging System (LiCOR). Experiments were performed in duplicate.

As a reminder, the Kd is the constant that tells how readily two partners part at equilibrium. By IC50 is commonly meant the point on the concentration scale where inhibition reaches its midpoint. As usually defined, the Ki is a measure of affinity in units of concentration, obtained from inhibition or displacement. Lower therefore signals higher affinity. In the case of `CCC(C)[C@@H](CN(CC(=O)N[C@@H](CC(C)C)CN(CC(=O)N[C@@H](CC(C)C)CN(CC(N)=O)S(=O)(=O)Cc1ccccc1)S(=O)(=O)CC(C)C)S(C)(=O)=O)NC(=O)CN(C[C@H](CCCNC(=N)N)NC(=O)CN(C[C@H](CC(C)C)NC(=O)CN(C[C@@H](NC(=O)CN(C[C@H](CC(C)C)NC(=O)CN(C[C@H](CCCNC(=N)N)NC(=O)CN(C[C@H](CCCNC(=N)N)NC(=O)CN(C[C@H](CCC(=O)O)NC(C)=O)S(=O)(=O)CCN)S(C)(=O)=O)S(C)(=O)=O)S(=O)(=O)CCN)C(C)O)S(=O)(=O)CC(C)C)S(=O)(=O)CCN)S(=O)(=O)CC(C)C` (stereo partly drawn) [Peptide 2], the Kd in assay [1] is 430 nM. In addition, the IC50 in assay [2] was 740 nM; in assay [3], 12500 ± 2860 nM; in assay [4], 39900 ± 4750 nM; in assay [5], 35400 nM. The compound further displayed a Ki in assay [2] of 640 nM.
On to `CCC(C)[C@@H](CN(CC(=O)N[C@@H](CC(C)C)CN(CC(=O)N[C@@H](CC(C)C)CN(CC(N)=O)S(=O)(=O)Cc1ccccc1)S(=O)(=O)CC(C)C)S(C)(=O)=O)NC(=O)CN(C[C@H](CCCNC(=N)N)NC(=O)CN(C[C@H](CC(C)C)NC(=O)CN(C[C@@H](NC(=O)CN(C[C@H](CC(C)C)NC(=O)CN(C[C@H](CCCNC(=N)N)NC(=O)CN(C[C@H](CCCNC(=N)N)NC(=O)CN(C[C@H](CCC(=O)O)NC(C)=O)S(C)(=O)=O)S(C)(=O)=O)S(C)(=O)=O)S(=O)(=O)CCN)C(C)O)S(=O)(=O)CC(C)C)S(=O)(=O)CCN)S(=O)(=O)CC(C)C` (stereo partly drawn) [Peptide 3], for which the “decrease in binding affinity relative to 2” value in assay [1] is given as “about 1.5 fold”. Further, the affinity in assay [1], expressed as Kd, was 860 nM. Also, the IC50 is 1040 ± 210 nM in assay [2], 12800 ± 2900 nM in assay [3], 43700 ± 3620 nM in assay [4] and 26500 nM in assay [5]. Also, affinity in assay [2] was put at a Ki of 920 ± 170 nM.
As to `CCC(C)[C@@H](CN(CC(=O)N[C@@H](CC(C)C)CN(CC(=O)N[C@@H](CC(C)C)CN(CC(N)=O)S(=O)(=O)Cc1ccccc1)S(=O)(=O)CC(C)C)S(C)(=O)=O)NC(=O)CN(C[C@H](CCCNC(=N)N)NC(=O)CN(C[C@H](CC(C)C)NC(=O)CN(C[C@@H](NC(=O)CN(C[C@H](CC(C)C)NC(=O)CN(C[C@H](CCCNC(=N)N)NC(=O)CN(C[C@H](C)NC(=O)CN(C[C@H](CCC(=O)O)NC(C)=O)S(=O)(=O)CCN)S(C)(=O)=O)S(C)(=O)=O)S(=O)(=O)CCN)C(C)O)S(=O)(=O)CC(C)C)S(=O)(=O)CCN)S(=O)(=O)CC(C)C` (stereo partly drawn) [Peptide 4], the “decrease in binding affinity relative to 2” value in assay [1] was “about 1.5 fold”. In assay [1], this compound displayed a Kd of 820 nM. For the same compound, the IC50 in assay [2] was 1100 ± 140 nM; in assay [3], 16400 ± 4400 nM; in assay [4], 43200 ± 5600 nM; in assay [5] it was 20600 nM. The affinity in assay [2], expressed as Ki, was 980 ± 110 nM. In addition, the “disruption of β-catenin/BCL9 PPI in cells (co-IP)” value in assay [6] was “disrupted the β-catenin/BCL9 PPI in a dose-dependent manner”.
“Ac-SQEQLEHRERSLQTLRDIQRMLF-NH2 [Peptide 1, reference compound]” yielded a Kd in assay [1] of 970 nM. The IC50 in assay [2] was 1280 nM; in assay [3] (SW480 cell, hyperactive β-catenin signaling, read-out: MTS IC50 ± SD), more than 200000 nM; in assay [4], more than 200000 nM. The Ki in assay [2] came out at 1130 nM. Also, in assay [5], the “TOPFlash luciferase activity, result in words” value is on record as “did not show any activity”.
